Measured values from patent US20080175889A1, “METHOD AND COMPOSITION FOR COATING WOUNDS AND PROTECTING SKIN USING A POLYETHER POLYURETHANE SOLUTION” (priority 2007, published 2008).

Key:
[1] = TWA; cited from earlier work
[2] = cited from earlier work
rat = details: cited from earlier work
[3] = published literature; cited from earlier work
animal's tissue = details: solvent alone or containing dissolved PEPU polymer; compared to THF

Row | SMILES | OSHA Permissible Exposure Limit and NIOSH Recommended Exposure limit [1] [ppm] | amount of solvent that can dissolve in water [2] | LD-50 (rats) (rat; rats) [mg/kg] | carcinogenicity / teratogenicity [3] | genotoxicity [3] | skin irritation [3] | penetration into an animal's tissue after applying the solvent onto the skin (animal's tissue) | amount of water that can dissolve in the solvent ([2]; water in solvent) [%] | LD-50 (rat; rat model, reported for both skin contact and inhalation)
1 | C1CCOC1 [THF, tetrahydrofuran] | 200 | miscible, in all proportions | 890 | not considered a carcinogen or a teratogen | nor is it genotoxic | skin irritant |  |  | 
2 | CC1CCCO1 (stereo not shown) [2-MeOX, 2-methyloxolane] |  | approximately 14 % by weight |  |  |  |  | much less 2-MeOX compared to THF solvent can penetrate | 4 | approximately 6 g/kg
